Earlier results as cited in patent publication US20220105100A1, “SAFE BRINZOLAMIDE AND BRIMONIDINE COMPOSITIONS WITH ENHANCED BENZALKONIUM CHLORIDE CONTENT” (Somerset Therapeutics, LLC, priority 2020, published 2022).

Settings: laboratory, experimental, and clinical studies

For benzalkonium chloride, the ophthalmological side effects is given as “causing tear film instability, loss of goblet cells, conjunctival squamous metaplasia and apoptosis, disruption of the conical epithelium barrier, and damage to deeper ocular tissues”.
